The target of this test is T1, bovine liver β-galactosidase.
T1 construct: gene GLB1; commercial native enzyme from bovine liver (Sigma-Aldrich)
Briefly: PNP-β-Gal hydrolysis, absorbance at […] nm. Format: biochemical, Bos taurus. The conditions noted are these: 1 mM PNP-β-Gal, citrate-phosphate buffer pH 7.3, 37 °C, 0.12 mg/mL enzyme; read-out: Inh.

With `CCOC(=O)c1c(-c2ccccc2)nc([C@@H]2O[C@H](CO)[C@@H](O)[C@H](O)[C@H]2O)[nH]c1=O` [11h, Ethyl 2-(β-D-glucopyranosyl)-4-phenyl-6-oxo-1,6-dihydropyrimidine-5-carboxylate], the IC50 is 294 ± 50 µM.

The values are drawn from paper PMC7037636, “Synthesis of New Series of 2-C-(β-D-glucopyranosyl)-Pyrimidines and Their Evaluation as Inhibitors of Some Glycoenzymes” (Molecules, 2020).
